From ChEMBL document CHEMBL1201862, “PubChem BioAssay data set” (2004)
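Each compound was tested at five concentrations against cells in 96-well plates for 48 hours. GI50: concentration for 50% inhibition of growth.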 Calls of active or inactive are those of the source. No stated cut-off is given here; in the data, active = GI50 up to about 1.1 µM and inactive = higher.

What was measured:
Assay in all cases: DTP human tumour cell line panel, 48 h
SR = test system: SR
LOX IMVI = test system: LOX IMVI
SK-OV-3 = test system: SK-OV-3
HOP-62 = test system: HOP-62
HCT-116 = test system: HCT-116
EKVX = test system: EKVX
T47D = test system: T47D
UACC-257 = test system: UACC-257
MDA-N = test system: MDA-N
SNB-75 = test system: SNB-75
U-251 = test system: U-251
M14 = test system: M14
UO-31 = test system: UO-31
A549 = test system: A549
NCI/ADR-RES = test system: NCI/ADR-RES
CAKI-1 = test system: CAKI-1
HCT-15 = test system: HCT-15
BT-549 = test system: BT-549
COLO 205 = test system: COLO 205

SMILES	GI50 (SR)	GI50 (LOX IMVI)	GI50 (SK-OV-3)	GI50 (HOP-62)	GI50 (HCT-116)	GI50 (EKVX)	GI50 (T47D)	GI50 (UACC-257)	GI50 (MDA-N)	GI50 (SNB-75)	GI50 (U-251)	GI50 (M14)	GI50 (UO-31)	GI50 (A549)	GI50 (NCI/ADR-RES)	GI50 (CAKI-1)	GI50 (HCT-15)	GI50 (BT-549)	GI50 (COLO 205)
CC1=CC(=O)[C@@H](O)[C@]2(C)[C@H]3[C@@]4(O)OC[C@@]35[C@@H](C[C@@H]12)OC(=O)C(OC(=O)CC1=CCCC1)[C@H]5[C@@H](C)[C@H]4O (some centres undefined)	0.0168 µM (active)	< 0.0177 µM (active)	0.551 µM (active)	0.024 µM (active)	0.0255 µM (active)	0.224 µM (active)	0.0771 µM (active)	0.022 µM (active)	0.0269 µM (active)	0.0423 µM (active)	0.0158 µM (active)	0.0294 µM (active)	0.0668 µM (active)	0.28 µM (active)	0.136 µM (active)	0.167 µM (active)	0.0593 µM	0.0409 µM (active)	0.24 µM (active)
C=C(C(=O)O)[C@@H]1C[C@@H]2O[C@H]1CC(C)=CCC/C(C)=C/CC[C@@]2(C)O	> 100 µM (inactive)	> 100 µM (inactive)			> 100 µM (inactive)	> 100 µM (inactive)	> 100 µM (inactive)	> 100 µM (inactive)	> 100 µM (inactive)	> 100 µM (inactive)	> 100 µM (inactive)	> 100 µM (inactive)	> 100 µM (inactive)	> 100 µM (inactive)	> 100 µM (inactive)	> 100 µM (inactive)	> 100 µM	> 100 µM (inactive)	> 100 µM (inactive)
O=C(O)/C=C/c1ccc(Oc2ccccc2C(=O)O)o1	> 10 µM (inactive)	> 10 µM (inactive)	> 10 µM (inactive)	> 10 µM (inactive)	> 10 µM (inactive)		> 10 µM (inactive)	> 10 µM (inactive)	> 10 µM (inactive)	> 10 µM (inactive)	> 10 µM (inactive)	> 10 µM (inactive)		> 10 µM (inactive)	> 10 µM (inactive)	> 10 µM (inactive)	> 10 µM	> 10 µM (inactive)	> 10 µM (inactive)
Cc1ccc2c(=O)[nH]sc2c1	3.69 µM (inactive)	16.1 µM (inactive)	> 100 µM (inactive)	19.5 µM (inactive)	31.9 µM (inactive)	14.9 µM (inactive)	14.8 µM (inactive)	18.4 µM (inactive)	14 µM (inactive)	71.6 µM (inactive)	14.8 µM (inactive)	11.7 µM (inactive)		19 µM (inactive)	21.6 µM (inactive)	5.4 µM (inactive)	14.6 µM	15.4 µM (inactive)	3.82 µM (inactive)
O=C1/C(=C/c2ccc([N+](=O)[O-])cc2)Oc2cc(O)ccc21	16.9 µM (inactive)		25.1 µM (inactive)	31.2 µM (inactive)	26.2 µM (inactive)	33.7 µM (inactive)	28.6 µM (inactive)	37.7 µM (inactive)	23.2 µM (inactive)	32.2 µM (inactive)	28.1 µM (inactive)	43.1 µM (inactive)	17.7 µM (inactive)	28.8 µM (inactive)	28.8 µM (inactive)	23.6 µM (inactive)	25.1 µM	25.9 µM (inactive)	> 10 µM (inactive)
C[C@]12CC[C@@H]3c4cc(I)c(O)cc4CC[C@H]3[C@@H]1CC[C@@H]2O	3.1 µM (inactive)	4.17 µM (inactive)	4.25 µM (inactive)			2.65 µM (inactive)	8.55 µM (inactive)	8.61 µM (inactive)	1.74 µM (inactive)	3.17 µM (inactive)	4.48 µM (inactive)	4.09 µM (inactive)	5.74 µM (inactive)	6.32 µM (inactive)	6.55 µM (inactive)	8.63 µM (inactive)	2.48 µM	11.6 µM (inactive)	18.5 µM (inactive)
Cc1ccc(S(=O)(=O)NC(=O)NCC(=O)NCC(=O)O)cc1	> 100 µM (inactive)	> 100 µM (inactive)	> 100 µM (inactive)		> 100 µM (inactive)	> 100 µM (inactive)	> 100 µM (inactive)	> 100 µM (inactive)	> 100 µM (inactive)	> 100 µM (inactive)	> 100 µM (inactive)	> 100 µM (inactive)	> 100 µM (inactive)	> 100 µM (inactive)	> 100 µM (inactive)	> 100 µM (inactive)	> 100 µM	> 100 µM (inactive)	> 100 µM (inactive)
CSc1nn(C)cc2nc(C)nc1-2	> 100 µM (inactive)			> 100 µM (inactive)	> 100 µM (inactive)	> 100 µM (inactive)	> 100 µM (inactive)	> 100 µM (inactive)	> 100 µM (inactive)	> 100 µM (inactive)	> 100 µM (inactive)	> 100 µM (inactive)	> 100 µM (inactive)	> 100 µM (inactive)	> 100 µM (inactive)	> 100 µM (inactive)	> 100 µM	> 100 µM (inactive)	> 100 µM (inactive)
CCNC(=S)NNC(=O)c1ccccc1Nc1ccccc1C(=O)NNC(=S)NCC	> 100 µM (inactive)	> 100 µM (inactive)	> 100 µM (inactive)	> 100 µM (inactive)	> 100 µM (inactive)	> 100 µM (inactive)	> 100 µM (inactive)		> 100 µM (inactive)	> 100 µM (inactive)	> 100 µM (inactive)	> 100 µM (inactive)	> 100 µM (inactive)	> 100 µM (inactive)	> 100 µM (inactive)		> 100 µM	> 100 µM (inactive)	> 100 µM (inactive)
CC(=O)OCC1OC(n2c(C)c(/N=N/c3ccc(Cl)cc3)c(C)c(C#N)c2=S)C(OC(C)=O)C(OC(C)=O)C1OC(C)=O (centres undefined)	> 100 µM (inactive)	86.3 µM (inactive)	36.3 µM (inactive)	22.8 µM (inactive)	48.1 µM (inactive)		> 100 µM (inactive)	62.8 µM (inactive)	> 100 µM (inactive)	20.1 µM (inactive)	28.1 µM (inactive)	> 100 µM (inactive)	> 100 µM (inactive)	64.4 µM (inactive)	> 100 µM (inactive)	50.8 µM (inactive)	> 100 µM	15.3 µM (inactive)	> 100 µM (inactive)
O=C1CSc2nnc(CCCCCCCCc3nnc4n3NC(=O)CS4)n2N1	30.8 µM (inactive)		> 100 µM (inactive)	46 µM (inactive)	91.2 µM (inactive)	> 100 µM (inactive)	> 100 µM (inactive)	42.6 µM (inactive)	> 100 µM (inactive)	32.1 µM (inactive)	35.4 µM (inactive)	> 100 µM (inactive)	> 100 µM (inactive)	> 100 µM (inactive)	> 100 µM (inactive)	> 100 µM (inactive)	37.2 µM	56.8 µM (inactive)	> 100 µM (inactive)
